Source: ChEMBL document CHEMBL2074284, “Transport of ochratoxin A by renal multispecific organic anion transporter 1” (J Pharmacol Exp Ther, 1999)

How the values were obtained:
[1] = target: T1, Solute carrier family 22 member 6 (Rattus norvegicus, UniProt O35956); experiment: TP_TRANSPORTER: inhibition of Ochratoxin A uptake (OTA: 1 uM, Citrinin: 200 uM) in Xenopus laevis oocytes; format: functional, cell-based; conditions: oocyte
T1 sequence (O35956 whole entry): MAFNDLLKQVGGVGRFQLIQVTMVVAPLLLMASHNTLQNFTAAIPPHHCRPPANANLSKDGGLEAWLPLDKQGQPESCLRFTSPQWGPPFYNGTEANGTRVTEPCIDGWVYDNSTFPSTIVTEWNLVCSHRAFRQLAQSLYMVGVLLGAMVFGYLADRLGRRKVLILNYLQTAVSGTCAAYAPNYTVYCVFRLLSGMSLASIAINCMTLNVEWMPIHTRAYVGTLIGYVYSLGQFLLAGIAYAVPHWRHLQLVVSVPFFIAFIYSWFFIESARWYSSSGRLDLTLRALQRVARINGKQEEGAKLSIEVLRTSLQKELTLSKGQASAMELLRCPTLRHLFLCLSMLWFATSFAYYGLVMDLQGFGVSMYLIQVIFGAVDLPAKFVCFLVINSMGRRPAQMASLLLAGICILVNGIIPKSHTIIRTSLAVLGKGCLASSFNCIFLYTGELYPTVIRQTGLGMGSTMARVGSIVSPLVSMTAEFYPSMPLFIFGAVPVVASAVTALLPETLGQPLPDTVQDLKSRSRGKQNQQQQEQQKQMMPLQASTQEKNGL

[2] = target: T1, Solute carrier family 22 member 6; experiment: TP_TRANSPORTER: inhibition of Ochratoxin A uptake (OTA: 1 uM, Aspartame: 1000 uM) in Xenopus laevis oocytes; format: functional, cell-based; conditions: oocyte

Q: Which Activity [1] does the source give for CC1=C2C(=CO[C@H](C)[C@H]2C)C(O)=C(C(=O)O)C1=O [CITRININ] here?
A: inhibitor [(at a rough estimate) 20 % of control]

Q: For COC(=O)[C@H](Cc1ccccc1)NC(=O)[C@@H](N)CC(=O)O, which Activity [2] is on record?
A: is not an inhibitor [-]
